Measured values reported in patent publication US20170002313A1, “COMPOSITIONS AND METHODS OF OBTAINING AND USING ENDODERM AND HEPATOCYTE CELLS” (Genentech Inc., priority 2012, published 2017).

Key:
phosphorylated AKT = assay: Phospho imaging assay (immunofluorescence); format: cell-based, human; conditions: 60 min; treated versus untreated cells, fluorescence intensity
Description: (§1) The effect of each compound on the PI3K/AKT/MTOR pathway was evaluated in two ways: via a kinase profile (FIG. 23) and via phospho imaging assays (i.e., immunofluorescence assays using antibodies specific for the phosphorylated form of mTOR or AKT). In vitro kinase profiling provided percent inhibition for numerous targets within the PI3K cell signaling pathway, and cell-based imaging assays were performed to directly visualize the effect of each compound on phosphorylated Akt and phosphorylated mTOR in the cell system used for differentiation.
(§2) In column 2 of Table 6, the PI3K alpha_MTOR score reflects the ability of a compound to inhibit the phosphorylation of PI3K alpha and mTOR, where + indicates minimal inhibition, and +++ indicates maximal inhibition. In column 3 of Table 6, the score indicates the ratio of phosphorylated mTOR (as measured by fluorescence intensity) in cells treated with a compound and the phosphorylated mTOR (as measured by fluorescence intensity) in cells that were not treated with the compound. In column 4 of Table 6, the score indicates the ratio of phosphorylated AKT (as measured by fluorescence intensity) in cells treated with a compound and the phosphorylated AKT (as measured by fluorescence intensity) in cells that were not treated with the compound. A reported effect of AKT inhibitors is an increase in phosphorylated AKT.

phosphorylated mTOR = assay: Phospho imaging assay (immunofluorescence); format: cell-based, human; conditions: 60 min; treated versus untreated cells, fluorescence intensity
Description: as §1, §2

mTOR = mTOR (Homo sapiens, UniProt P42345); assay: In vitro kinase profile, PI3K alpha_MTOR score; format: biochemical
Description: as §1, §2

[1] = system: human embryonic stem cells (hESC); assay: Endoderm differentiation of hESC with small-molecule inhibitors, flow cytometry of endoderm markers; format: cell-based; conditions: Activin A + 750 nM inhibitor, no Wnt3a, 3-day treatment
Excerpt: A variety of cell-type specific markers were used to monitor the differentiation of stem cells into endoderm cells in the flow cytometry, fluorescence imaging, and immunoassay experiments described below. To detect endoderm conversion, hESC-derived cell samples were stained for the expression of SOX17, FoxA2, and CXCR4 proteins. SOX17, FoxA2, and CXCR4 are proteins that are expressed by endoderm cells but not by stem cells. To detect stem cells, cell samples were stained for the expression of OCT4, a protein expressed by stem cells but not by endoderm cells.
Undifferentiated human embryonic stem cells (hES) were maintained at a density of 40,000 cells/cm^2 on qualified matrigel (BD, #354277) in TesR™2 medium ([…]™ Technologies #05860). Cultures were manually passaged twice a week. To prepare for endoderm differentiation, hESC cells were passaged into TesR™2 medium overnight. The following day, the TesR™2 medium was replaced with basal medium (DMEM/F12+Glutamax (Invitrogen, #10565) supplemented with B27 (Invitrogen, #17504-044)). No human embryos were destroyed in the process of obtaining stem cells for these methods. Furthermore, the plurality of stem cells is not obtained by the prior destruction of human embryos.
Unless otherwise noted, basal medium was supplemented with […] human Activin A (Peprotech, #120-14). When indicated, basal medium was also supplemented with an effective amount of, e.g., a growth factor such as […] human Wnt3a (R&D, #5036-WN-010), an isoform-specific P13K inhibitor or an mTOR inhibitor. […]
To prepare the cells for flow cytometry, hESC-derived cells grown under endoderm differentiation conditions were dissociated using Accutase (Innovative Cell technologies, #AT-104). Briefly, the cells were washed once in PBS, incubated with Accutase for 10 minutes at room temperature, pelleted, and washed in cold PBS. The Accutase-dissociated hESC-derived cell samples were stained with anti-CXC4 antibody, anti-SOX17 antibody, or anti-FoxA2 antibody. Additional cell samples were stained with isotype control antibodies (e.g., IgG1 or IgG2).
The cells that were to be stained with anti-CXCR4 antibody were washed once with cold DPBS and then directly stained with mouse anti-human CD184 (CXCR4)-IgG2-PE (BD, #555974) for one hour at 4° C. The cells that were to be stained with anti-SOX17 antibody or anti-FoxA2 antibody were first fixed for 25 minutes at 4° C. in fixation buffer (BD, #554655) and permeabilized for 30 minutes on ice in Perm Buffer III (BD, #554656). Anti-SOX17 staining was performed using a mouse anti-SOX17 IgG1-PE antibody (BD, #561591) at room temperature for 30 minutes. Anti-FoxA2 staining was performed using a mouse anti-human FoxA2 IgG1 (BD, #561589) under the same conditions. A control sample of cells were fixed as described above and stained with either an anti-IgG1-PE antibody (BD, #554680) at room temperature for 30 minutes or an anti-IgG2-PE antibody (BD, #55574) for one hour at 4° C.
The antibody-stained hESC-derived cells were then analyzed via flow cytometry using a BD LSRFortessa™ cell analyzer. […] Approximately 1×10^6 cells were analyzed per sample.

PI3K alpha = PI3K alpha (Homo sapiens, UniProt P42336); assay: In vitro kinase profile, PI3K alpha_MTOR score; format: biochemical
Description: as §1, §2

[2] = system: human embryonic stem cells (hESC); assay: AlphaLISA of SOX17 and OCT4 in hESC-derived cells; format: cell-based; conditions: Activin A + 750 nM inhibitor, no Wnt3a, 3-day treatment
Description: To detect OCT4, the cells were washed three times in PBS and lysed with 50 ul AlphaLISA Lysis Buffer (Perkin Elmer, #AL003C). The lysis buffer was added to each cell sample and mixed with the cells five times. The cell samples were then incubated in a plate shaker at room temperature for 15 minutes. 5 μl of the lysate from each sample was then transferred to a 384 well OptiPlate (Perkin Elmer, #6005629). 5 μl of 10 ug/ml anti-rabbit acceptor bead (Perkin Elmer, #AL104M) and […] of 0.2 nM of rabbit anti-OCT4 antibody (Cell Signaling, #2890) was added to each well and incubated for 2 hours at room temperature. Following the incubation, 5 μl of 0.5 nM mouse anti-OCT4 antibody (BD, #611203) and […] of 0.5 nM biotinylated goat anti-mouse antibody (Invitrogen, #B2763) were added to each well and incubated at room temperature for 2 hours. Following the incubation, […] of streptavidin donor beads (Perkin Elmer, #6760002B) were added to each well and incubated for 30 minutes. The OptiPlates were then analyzed using an Envision Multilabel Plate Reader (Perkin Elmer, #2104-0010). All beads and antibodies were diluted as necessary in IAB Buffer (Perkin Elmer, #AL000C)+50 mM NaCl. Four replicate assays were performed.
To detect SOX17, the cells were washed three times in PBS and lysed with 50 ul Roche Complete Lysis Buffer (Roche, #04719956001). The lysis buffer was added to each cell sample and mixed with the cells five times. The cell samples were then incubated in a plate shaker at room temperature for 15 minutes. 5 μl of the lysate from each sample was then transferred to a 384 well OptiPlate (Perkin Elmer, #6005629). 5 μl of 10 ug/ml anti-rabbit acceptor bead (Perkin Elmer, #AL104M) and […] of 1 nM of rabbit anti-SOX17 antibody (Sigma, #AV33271) was added to each well and incubated for 2 hours at room temperature. Following the incubation, 5 μl of 0.5 nM mouse anti-SOX antibody (Sigma, #SAB3300093) and […] of 0.5 nM biotinylated goat anti-mouse antibody (Invitrogen, #B2763) were added to each well and incubated at room temperature for 2 hours. Following the incubation, […] of streptavidin donor beads (Perkin Elmer, #6760002B) were added to each well and incubated for 30 minutes. The OptiPlates were then analyzed using an Envision Multilabel Plate Reader (Perkin Elmer, #2104-0010). All beads and antibodies were diluted as necessary in IAB Buffer (Perkin Elmer, #AL000C) Four replicate assays were performed.
After a 3-day treatment, cells were harvested and stained with anti-SOX17 antibody as described above in preparation for AlphaLISA analysis.

Sequence of PI3K alpha (P42336 whole entry, species assumed): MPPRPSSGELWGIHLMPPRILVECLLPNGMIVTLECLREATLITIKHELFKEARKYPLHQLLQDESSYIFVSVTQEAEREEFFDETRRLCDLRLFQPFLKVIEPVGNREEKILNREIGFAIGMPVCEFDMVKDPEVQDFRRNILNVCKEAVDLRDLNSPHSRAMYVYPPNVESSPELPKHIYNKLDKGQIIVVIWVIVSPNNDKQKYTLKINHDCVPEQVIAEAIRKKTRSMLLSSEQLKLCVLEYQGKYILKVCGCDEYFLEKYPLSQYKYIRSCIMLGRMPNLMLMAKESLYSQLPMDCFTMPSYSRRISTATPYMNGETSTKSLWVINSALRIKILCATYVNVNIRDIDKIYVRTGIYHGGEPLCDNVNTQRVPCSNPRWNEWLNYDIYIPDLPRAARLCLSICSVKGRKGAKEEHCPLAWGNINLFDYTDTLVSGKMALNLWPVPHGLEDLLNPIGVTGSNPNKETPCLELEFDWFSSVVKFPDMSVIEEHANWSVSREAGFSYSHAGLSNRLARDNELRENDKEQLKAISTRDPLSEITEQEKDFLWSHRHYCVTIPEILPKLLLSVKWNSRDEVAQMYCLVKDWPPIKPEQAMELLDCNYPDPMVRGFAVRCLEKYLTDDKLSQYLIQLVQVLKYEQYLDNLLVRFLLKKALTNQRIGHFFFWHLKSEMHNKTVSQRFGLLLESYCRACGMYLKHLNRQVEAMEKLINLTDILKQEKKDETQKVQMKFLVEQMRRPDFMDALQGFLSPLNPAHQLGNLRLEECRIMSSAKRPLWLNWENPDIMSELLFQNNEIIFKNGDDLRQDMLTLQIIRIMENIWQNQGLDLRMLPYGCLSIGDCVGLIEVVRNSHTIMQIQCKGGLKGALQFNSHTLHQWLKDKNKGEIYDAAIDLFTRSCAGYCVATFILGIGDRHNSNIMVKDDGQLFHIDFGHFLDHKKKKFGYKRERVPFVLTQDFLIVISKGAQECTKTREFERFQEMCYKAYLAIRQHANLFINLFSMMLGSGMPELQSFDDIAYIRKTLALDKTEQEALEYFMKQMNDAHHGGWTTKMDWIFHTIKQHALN
Sequence of PI3K alpha (P27986 whole entry partner, species assumed): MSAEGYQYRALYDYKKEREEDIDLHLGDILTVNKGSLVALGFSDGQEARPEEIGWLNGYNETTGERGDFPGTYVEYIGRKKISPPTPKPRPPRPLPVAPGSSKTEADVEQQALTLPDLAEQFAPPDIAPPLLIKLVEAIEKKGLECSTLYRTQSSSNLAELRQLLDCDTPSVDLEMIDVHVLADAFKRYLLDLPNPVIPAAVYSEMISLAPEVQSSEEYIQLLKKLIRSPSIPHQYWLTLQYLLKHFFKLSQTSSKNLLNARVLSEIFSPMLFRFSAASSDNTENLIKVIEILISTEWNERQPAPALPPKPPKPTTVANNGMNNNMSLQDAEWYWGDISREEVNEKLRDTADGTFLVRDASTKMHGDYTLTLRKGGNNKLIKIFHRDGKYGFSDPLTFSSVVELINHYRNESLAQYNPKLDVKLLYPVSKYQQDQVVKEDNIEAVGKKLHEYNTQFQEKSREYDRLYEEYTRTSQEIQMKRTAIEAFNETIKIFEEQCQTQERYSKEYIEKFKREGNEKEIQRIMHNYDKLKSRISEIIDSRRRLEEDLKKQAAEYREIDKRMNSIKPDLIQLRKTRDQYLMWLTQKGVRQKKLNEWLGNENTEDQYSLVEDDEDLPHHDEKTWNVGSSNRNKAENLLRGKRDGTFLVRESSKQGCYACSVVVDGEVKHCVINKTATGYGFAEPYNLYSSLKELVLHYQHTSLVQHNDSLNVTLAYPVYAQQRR

SMILES | Max(Avg (Ph AKT_60min_Intensity)) (phosphorylated AKT) | Avg(Avg (Ph MTOR_60m_%C # Spots)) (phosphorylated mTOR) [%C] | PI3K alpha_MTOR score: MTOR (mTOR) | endoderm conversion (SOX17, FoxA2, CXCR4 flow cytometry) [1] | PI3K alpha_MTOR score: PI3K alpha (PI3K alpha) | endoderm conversion (SOX17 AlphaLISA) [2]
Clc1ccc(C2(c3ccc(-c4cn[nH]c4)cc3)CCNCC2)cc1 [AT7867] | 122.15 | 73.59 | – | – | – | –
COc1ccc(-c2ccc3c(N4CCOC[C@@H]4C)nc(N4CCOC[C@@H]4C)nc3n2)cc1CO [AZD 8055] | – | 15.8 | +++ | – | – | –
Cc1c(CN2CCN(C(=O)[C@H](C)O)CC2)sc2c(N3CCOCC3)nc(-c3cnc(N)nc3)nc12 [GDC0980] | – | 9.99 | – | – | – | –
CCn1c(-c2nonc2N)nc2c(C#CC(C)(C)O)ncc(OC[C@H]3CCCNC3)c21 [GSK690693] | – | – | – | higher degree of endoderm conversion | – | –
COc1ncc(-c2ccc3nccc(-c4ccnnc4)c3c2)cc1NS(=O)(=O)c1ccc(F)cc1F [GSK2126458] | – | 15.55 | PI3K alpha+++_MTOR+++ | – | PI3K alpha+++_MTOR+++ | –
COc1ccc(-c2ccc3c(N4CCOCC4)nc(N4C[C@@H](C)O[C@@H](C)C4)nc3n2)cc1CO [KU0063794] | – | 25.83 | +++ | higher degree of endoderm conversion | + | better endoderm conversion than cells cultured in Activin A alone or cells cultured with an Akt inhibitor
Cn1c(=O)n(-c2ccc(C(C)(C)C#N)cc2)c2c3cc(-c4cnc5ccccc5c4)ccc3ncc21 [NVPBEZ235] | 88.3 | 43.44 | – | – | – | –
Nc1cc(C(F)(F)F)c(-c2cc(N3CCOCC3)nc(N3CCOCC3)n2)cn1 [NVPBKM120] | – | 60.28 | PI3K alpha+++_MTOR+++ | – | PI3K alpha+++_MTOR+++ | –
Oc1cccc(-c2nc(N3CCOCC3)c3oc4ncccc4c3n2)c1 [PI103] | – | 5.59 | PI3K alpha+++_MTOR+++ | – | PI3K alpha+++_MTOR+++ | –
COc1ccc2c(c1OC)N=C(NC(=O)c1cccnc1)N1CCN=C21 [PIK90] | 86.72 | 42.17 | – | – | +++ | –
CN(C)C1CCN(C(=O)c2ccc(NC(=O)Nc3ccc(-c4nc(N5CCOCC5)nc(N5CCOCC5)n4)cc3)cc2)CC1 [PKI 587] | – | 77.99 | +++ | – | – | –
CO[C@H]1C[C@@H]2CC[C@@H](C)[C@@](O)(O2)C(=O)C(=O)N2CCCC[C@H]2C(=O)O[C@H]([C@H](C)C[C@@H]2CC[C@@H](O)[C@H](OC)C2)CC(=O)[C@H](C)/C=C(\C)[C@@H](O)[C@@H](OC)C(=O)[C@H](C)C[C@H](C)/C=C/C=C/C=C/1C [Rapamycin] | – | 57.77 | – | – | – | –
CO[C@H]1C[C@@H]2CC[C@@H](C)[C@@](O)(O2)C(=O)C(=O)N2CCCC[C@H]2C(=O)O[C@H]([C@H](C)C[C@@H]2CC[C@@H](OC(=O)C(C)(CO)CO)[C@H](OC)C2)CC(=O)[C@H](C)/C=C(\C)[C@@H](O)[C@@H](OC)C(=O)[C@H](C)C[C@H](C)/C=C/C=C/C=C/1C [Temsirolimus] | – | 42.12 | – | – | – | –
CCC(=O)N1CCN(c2ccc(-n3c(=O)ccc4cnc5ccc(-c6cnc7ccccc7c6)cc5c43)cc2C(F)(F)F)CC1 [Torin1] | 89.48 | 66.6 | – | – | – | –
COC(=O)Nc1ccc(-c2nc(N3CCOCC3)c3cnn(C4CCN(C(=O)OC)CC4)c3n2)cc1 [WYE - 354] | 89.35 | 10.49 | +++ | higher degree of endoderm conversion | – | better endoderm conversion than cells cultured in Activin A alone or cells cultured with an Akt inhibitor
COC(=O)Nc1ccc(-c2nc(N3CCOCC3)c3cnn(C4CCN(Cc5cccnc5)CC4)c3n2)cc1 [WYE-687] | 86.65 | 12.81 | +++ | – | + | –
CNC(=O)Nc1ccc(-c2nc(N3CC4CCC(C3)O4)c3cnn(C4CCC5(CC4)OCCO5)c3n2)cc1 [WYE-125132] | – | 17.55 | +++ | – | – | –
COC[C@H]1OC(=O)c2coc3c2[C@@]1(C)C1=C(C3=O)[C@@H]2CCC(=O)[C@@]2(C)C[C@H]1OC(C)=O [Wortmannin] | – | 10.47 | – | – | – | –
